The test system of assay [1] is Staphylococcus aureus. The assay is described as follows: Antimicrobial activity against Staphylococcus aureus ATCC 13709a at 1000 ug/ml. It is filed as functional, organism-based.
The subject of assay [2] is Escherichia coli. Description: Antimicrobial activity against Escherichia coli ATCC 9637 at 1000 ug/ml. It is filed as functional, organism-based.
Assay [3] relates to Salmonella enterica subsp. enterica serovar Gallinarum. The assay is described as follows: Antimicrobial activity against Salmonella gallinarum ATCC 9184 at 1000 ug/ml. The class given is functional, organism-based.
The test system of assay [4] is Klebsiella pneumoniae. Description: Antimicrobial activity against Klebsiella pneumoniae ATCC 10031 at 1000 ug/ml. The class given is functional, organism-based.
The subject of assay [5] is Mycolicibacterium smegmatis. Description: Antimicrobial activity against Mycobacterium smegmatis ATCC 607 at 1000 ug/ml. It is filed as functional, organism-based.
Assay [6] concerns Candida albicans. Description: Antimicrobial activity against Candida albicans ATCC 10231 at 1000 ug/ml. It is filed as functional, organism-based.
The test system of assay [7] is Staphylococcus aureus. Description: Antimicrobial activity against Staphylococcus aureus ATCC 13709a. The class given is functional.
The subject of assay [8] is Mycolicibacterium smegmatis. The assay is described as follows: Antimicrobial activity against Mycobacterium smegmatis ATCC 607. It is filed as functional.
Assay [9] deals with Escherichia coli. Description: Antimicrobial activity against Escherichia coli ATCC 9637. The class given is functional.
For assay [10], the system named is Salmonella enterica subsp. enterica serovar Gallinarum. The assay is described as follows: Antimicrobial activity against Salmonella gallinarum ATCC 9184. It is filed as functional.
For assay [11], the system named is Klebsiella pneumoniae. Description: Antimicrobial activity against Klebsiella pneumoniae ATCC 10031. The class given is functional.
Assay [12] relates to Candida albicans. The assay is described as follows: Antimicrobial activity against Candida albicans ATCC 10231. It is filed as functional.

The source made the active and inactive calls. No cut-off for these calls is given here.

On to `O=C1NCCc2cc3c(cc21)OCO3`, for which the result (with Staphylococcus aureus [1]; in the assay on Escherichia coli [2]; in assay [3]; in the assay with Klebsiella pneumoniae [4]; in assay [5]; in the assay on Candida albicans [6]) was inactive.

As to `COc1cc2c(cc1O)[C@H](Cc1ccc(OC)c(Oc3ccc(C[C@H]4c5cc(OC)c(OC)cc5CCN4C)cc3)c1)N(C)CC2` [NEOTHALIBRINE], the Activity (in the assay on Staphylococcus aureus [7]; in assay [8]) was 1000 µg/mL in each case. The result (in the assay on Escherichia coli [2]; in assay [3]; in the assay on Klebsiella pneumoniae [4]; in the assay on Candida albicans [6]) was inactive.

Consider `CN[C@@H]1[C@H](O[C@H]2[C@H](O[C@H]3[C@H](O)[C@@H](O)[C@H](N=C(N)N)[C@@H](O)[C@@H]3N=C(N)N)O[C@@H](C)[C@]2(O)C=O)O[C@@H](CO)[C@H](O)[C@H]1O` [STREPTOMYCIN], for which the Activity in the assay with Staphylococcus aureus [7] was found to be 3.1 µg/mL; with Escherichia coli [9], 12.5 µg/mL; in assay [10], 25 µg/mL; in the assay with Klebsiella pneumoniae [11], 1.56 µg/mL; in assay [8] it was 0.78 µg/mL. Besides, in the assay on Candida albicans [6], the result was inactive.

In the case of `COc1cc(CCN(C)C)c2ccc3cc4c(cc3c2c1OC)OCO4` [THALICTHUBERINEC], the Activity was determined as 100 µg/mL with Staphylococcus aureus [7]; 1000 µg/mL in assay [10]; 1000 µg/mL in the assay with Klebsiella pneumoniae [11]; 25 µg/mL in [8]; 50 µg/mL with Candida albicans [12]. Moreover, the outcome in the assay on Escherichia coli [2] was inactive.

Turning to `COc1cc2c3c(c1O)Oc1c4c(cc(OC)c1OC)[C@H](Cc1ccc(cc1)Oc1cc(ccc1O)C[C@@H]3N(C)CC2)N(C)CC4` [THALIGOSIDINE], the Activity is 1000 µg/mL in the assay on Staphylococcus aureus [7], 100 µg/mL in assay [8] and 1000 µg/mL in the assay with Candida albicans [12]. Further, the outcome (with Escherichia coli [2]; in assay [3]; with Klebsiella pneumoniae [4]) was inactive.

With `CCOc1c2c3c(c(OC)c1OC)Oc1cc4c(cc1OC)CCN(C)[C@H]4Cc1ccc(OC)c(c1)Oc1ccc(cc1)C[C@@H]3N(C)CC2` [THALIGOSINE ETHYL ETHER], the Activity in the assay on Staphylococcus aureus [7] was determined as 100 µg/mL; in the assay on Klebsiella pneumoniae [11], 1000 µg/mL; in [8] it was 100 µg/mL; in the assay on Candida albicans [12], 100 µg/mL. Besides, the outcome (in the assay on Escherichia coli [2]; in assay [3]) was inactive.

Regarding `COc1ccc2cc1Oc1ccc(cc1)C[C@H]1c3c(c(O)c(OC)c(OC)c3Oc3cc4c(cc3OC)CCN(C)[C@H]4C2)CCN1C` [THALIGOSINE], the Activity in the assay with Staphylococcus aureus [7] is 100 µg/mL; in assay [8], 100 µg/mL; in the assay on Candida albicans [12] it was 1000 µg/mL. For the same compound, the outcome (in the assay with Escherichia coli [2]; in [3]) was inactive.

In the case of `COc1cc2c3cc1Oc1c(OC)c(OC)c(OC)c4c1[C@H](Cc1ccc(cc1)Oc1cc(ccc1O)C[C@@H]3N(C)CC2)N(C)CC4` [THALIGOSININE], the Activity (with Staphylococcus aureus [7]; in the assay on Klebsiella pneumoniae [11]; in assay [8]) was 1000 µg/mL in each case. Further, the result (in the assay with Escherichia coli [2]; in assay [3]; in the assay with Klebsiella pneumoniae [4]; with Candida albicans [6]) was inactive.

Turning to `COc1ccc(C[C@H]2c3cc(OC)c(OC)c(O)c3CCN2C)cc1Oc1ccc(C[C@H]2c3cc(OC)c(OC)c(O)c3CCN2C)cc1` [THALIRUGIDINE], the Activity (in the assay with Staphylococcus aureus [7]; in assay [8]) was 1000 µg/mL throughout. Besides, the outcome (in the assay with Escherichia coli [2]; in [3]; in the assay with Klebsiella pneumoniae [4]; in the assay on Candida albicans [6]) was inactive.

`COc1cc2c(cc1O)[C@H](Cc1ccc(OC)c(Oc3ccc(C[C@H]4c5cc(OC)c(OC)c(O)c5CCN4C)cc3)c1)N(C)CC2` [THALIRUGINE]: the Activity (with Staphylococcus aureus [7]; in assay [8]) was 1000 µg/mL throughout. Also, the result (with Escherichia coli [2]; in assay [3]; with Klebsiella pneumoniae [4]; in the assay with Candida albicans [6]) was inactive.
